According to US9023767B2, “γ-Secretase substrates and methods of use” (Memorial Sloan-Kettering Cancer Center, priority 2009, dated 2015):

Columns and labels:
γ-secretase [1] = target: T1, γ-secretase (Homo sapiens (Human), UniProt P49768+Q92542); test: Photoaffinity labeling of γ-secretase in HeLa membrane by Aβ17-23BPA20-biotin; assay type: binding; conditions: inhibitor at 2 μM
Protocol: FIG. 4. […] Various concentrations of inhibitor were incubated with APP substrate (S4) or Notch peptide substrate containing the C-terminal biotinylated transmembrane domain of Notch1 and HeLa cell membrane in the presence of 0.25% CHAPSO. Aβ40 was detected by G2-10 antibody. The cleaved Notch product was detected by Val1744 antibody that specifically recognizes the cleaved product between Gly1743 and Val1744. Activities are expressed as percentage relative to reading that was produced in DMSO control. […] Various concentrations of S4 substrate were incubated with HeLa membrane in fixed concentrations of inhibitor as indicated. The double reciprocal velocity (1/v) and substrate concentrations (1/S) are plotted to determine the type of inhibition. […] Assays were conducted as described in FIG. 4A. […] The labeled samples were solubilized with RIPA buffer. Biotinylated proteins were captured with streptavidin-agarose and probed by immunoblotting using antibodies against biotin, PS1-CTF, PS1-NTF, Nicastrin, PEN-2 and APH-1a. HeLa cell membrane proteins were directly loaded onto lanes indicated by an arrow in the PEN-2 and APH-1a blots as positive controls. […] Upper panel: PS1-NTF; Lower panel: PS1-CTF.
The labeled proteins were eluted with 2×SDS sample buffer and analyzed with Western blotting using antibodies against the components of γ-secretase complex. Protein concentration was determined with the Dc protein assay kit (Bio-Rad)
After the photolyzed membranes were solubilized, biotinylated proteins were captured, eluted and analyzed by western blotting with antibodies against biotin, PS1, nicastrin, PEN-2 and APH-1.

γ-secretase [2] = target: T1, γ-secretase; test: In vitro γ-secretase assay, HeLa membrane, APP-derived substrates, ECL detection; assay type: biochemical; conditions: S4 substrate
Protocol: The recombinant proteins were incubated with γ-secretase (40 μg/ml) in the presence or absence of 1 μM γ-secretase inhibitor L-685,458 (CAS [292632-98-5], shown below). The reaction mixture contains 0.25% 3[(3-cholamidopropyl) dimethylammonio]-2-hydroxypropanesulfonic acid (CHAPSO), 0.1 μg/μl BSA, protease inhibitor, 50 mM PIPES, pH 7.0, 5 mM MgCl2, 5 mM CaCl2 and 150 mM KCl. The reaction was incubated for 2.5 hr at 37° C. and stopped by adding RIPA buffer (150 mM NaCl, 1.0% NP-40, 0.5% sodium
[drawing 1] deoxycholate, 0.1% SDS, 50 mM Tris HCl, pH 8.0). The products were detected with various antibody combinations as previously described (Lai et al., 2003; J. Biol. Chem., 278: 22475-22481; Li et al., 2000, Proc. Natl. Acad. Sci. USA, 97: 6138-6143; Yin et al., 2007, J. Biol. Chem., 282:23639-23644) using electrochemiluminescence (ECL). The amount of product was determined using synthetic peptide or recombinant standards. The Km and Vmax were determined from the Michaelis-Menten equation Michaelis-Menten Kinetics (ν=Vm[S]/([…]; ν: initial rate; Vm: maximum velocity; Km: the Michaelis-Menten constant, S: substrate). P-values were calculated from Student t-test. 7.1.5 Cell-Based Aβ Production Assay and Western Blot

A20 mouse lymphoma cells = test: Lymphoma cell proliferation assay, [3H]thymidine incorporation; assay type: cell-based; conditions: 48 hours
Protocol: For a lymphoma cell proliferation assay, A20 mouse lymphoma cells were seeded in a 96-well plate at a concentration of 5×10^5 cells/ml in 100 μl RPMI media containing 2% fetal bovine serum. An additional 100 μl of media containing DMSO or γ-secretase inhibitor was added and incubated for 48 hours at 37° C. After this incubation, the cells were incubated for 5 hours with 2 μCi/ml [^3H]thymidine at 37° C. Proliferative response was then evaluated by harvesting the tritiated DNA from cells using a Skatron cell harvester and proliferation assessed as a function of [^3H]thymidine incorporation measured on a β-counter.

γ-secretase [3] = target: T2, γ-secretase (Homo sapiens (Human), UniProt P49768); test: HTRF γ-secretase assay with Sb4 substrate; assay type: biochemical; conditions: 384-well, 2% DMSO; read-out: IC50, HTRF assay
Description: We set out to transfer the assay conditions obtained with the ECL method to an HTRF detection based format (FIG. 10b). The HTRF detection mixture consisted of mouse G2-10 antibody for recognition of the C-terminal epitope of the cleaved product, a Europium-labeled anti-mouse antibody (commonly, an antibody is conjugated with a cryptate ligand that forms a three dimensional coordination cage structure surrounding a lanthanide such as Eu^3+), along with Streptavidin conjugated to a trimeric form of the fluorescent protein allophycocyanin referred to as XL665. Cleavage of Sb4 substrate allows G2-10 mouse antibody to bind to the Aβ40-processed site on the cleaved substrate. The Steptavidin-XL665 conjugate binds directly with the biotin moiety on the N-terminal end of the Sb4 derived product. The anti-mouse Europium antibody targets to the G2-10 antibody, bringing all of these entities into close proximity. The Europium and XL665 reagents are a compatible pair of donor-acceptor fluorophores, and excitation of Europium at 337 nm results in fluorescence energy resonance transfer (FRET) to XL665 which fluoresces at 665 nm (FIG. 10b).
Human γ-secretase was prepared from HeLa cell membranes as described previously (Li et al., 2000). Briefly, HeLa cell pellet was resuspended in 1×MES buffer (50 mM MES, pH 6.0, 150 mM KCl, 5 mM CaCl2, 5 mM MgCl2) and treated with ‘complete’ protease inhibitor (Boehringer Mannheim). The resuspended pellet was mechanically homogenized by passing the cells through the French Press (Spectronic Instruments), and subsequently spun down at 800 g to remove cell debris and nuclei. Next, the supernatants were spun at 100,000 g in order to pellet the membranes. The pelleted membranes were resuspended in 1×MES buffer to approximately 12 mg/ml. This entire procedure was performed at 4° C. HeLa membranes were solubilized using 1% CHAPSO detergent in 1×MES buffer with protease inhibitors. After incubating for 1 hr at 4° C., the membrane was spun down at 100,000 g and the supernatants were collected and stored at −70° C. The collected fraction is defined as solubilized γ-secretase.
HTRF conditions were initially optimized in a 384-well format using a final volume of 20 μl. The high control for this assay was defined as the observed γ-secretase activity in the presence of 1% DMSO (v/v) and the low control as the activity observed when including 100 nM final concentration of Compound E (v/v). First, we determined a tolerable DMSO concentration that would not interfere with γ-secretase activity. Even with 3% DMSO (v/v) present in the assay mixture, there was virtually no effect on the γ-secretase activity (FIG. 11a), which was critical as delivery of library screening compounds required a final concentration of 2% DMSO (v/v) in the γ-secretase reaction. Next, we titrated the HTRF mixture components in an effort to minimize reagent costs for use in high throughput screening. […] Additionally, we varied Europium conjugated anti-mouse antibody and determined that 1 nM of this reagent in the HTRF mixture was sufficient for our assay conditions even though the signal continued to increase with higher concentrations of the anti-mouse antibody (FIG. 11c).
We have further miniaturized the HTRF assay from the established 384-well format to a 1536-well platform enabling more efficient screening of large chemical libraries. […] Based on these optimization experiments, we set our final assay conditions at 0.3 nM G2-10, 1 nM anti-mouse antibody, 15 nM Streptavidin-XL665, and proceeded with the assay at 10 μl final volume (5 μl γ-secretase mix+5 μl HTRF mix) in the 1536-well format for screening.
The pilot assay was performed in duplicate on two separate days to account for any day-to-day variability. […]

γ-secretase [4] = target: T2, γ-secretase; test: Notch1 processing in ΔE-Notch1 transfected HEK293 cells, NICD Western blot; assay type: cell-based; conditions: 2 μM, 48 hrs
Protocol: FIG. 5. […] The conditioned media were collected and secreted Aβ40 was measured with 6E10/G2-10 antibodies (mean±SEM; n=3). The activities of the peptide treatments were normalized to the DMSO treatment. […] The same experiments were performed as FIG. 5c. The cell lysates were analyzed by CT-15 antibody. Upper panel: full length APP. Lower panel: CTFs. […] The ΔE-Notch1 (a Notch construct with deletion of the extracellular portion and tagged by Myc) was transfected into HEK293 cells.

For `CC(C)C[C@H](NC(=O)[C@H](Cc1ccccc1)C[C@@H](O)[C@H](Cc1ccccc1)NC(=O)OC(C)(C)C)C(=O)N[C@@H](Cc1ccccc1)C(N)=O` [L-685,458], the “block of photo-crosslinking of PS1-CTF and PS1-NTF by Aβ17-23BPA20-biotin” value (γ-secretase [1]) was “completely blocked”, the “type of inhibition (Lineweaver-Burk)” value (γ-secretase [2]) was “competitive inhibition” and the “inhibition of cellular proliferation” value (A20 mouse lymphoma cells) was “able to inhibit cellular proliferation”. The IC50 (γ-secretase [3]) was 1.4 nM and the “production of NICD” value (γ-secretase [4]) was “NICD was not detected”.
